# Results as given in PubChem BioAssay (NCI).
#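 How tested: cells in 96-well plates exposed to compound for 48 hours at five concentrations. Abbreviation: GI50, concentration required for 50% inhibition of growth. TGI is the concentration that stops growth completely.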
# What was measured:
# Experiment in all cases: NCI-60 cell line screen, 48 h
# EKVX NSCLC = tested on: EKVX NSCLC
# OVCAR-8 ovarian = tested on: OVCAR-8 ovarian
# KM12 colon = tested on: KM12 colon
# OVCAR-4 ovarian = tested on: OVCAR-4 ovarian
# A498 renal = tested on: A498 renal
# SK-MEL-2 melanoma = tested on: SK-MEL-2 melanoma
# SR leukemia = tested on: SR leukemia
# SNB-19 CNS = tested on: SNB-19 CNS
# CCRF-CEM leukemia = tested on: CCRF-CEM leukemia
# HL-60(TB) leukemia = tested on: HL-60(TB) leukemia
# MDA-MB-231 breast = tested on: MDA-MB-231 breast
# MDA-MB-468 breast = tested on: MDA-MB-468 breast
# HCT-116 colon = tested on: HCT-116 colon
# HCT-15 colon = tested on: HCT-15 colon
# OVCAR-5 ovarian = tested on: OVCAR-5 ovarian
# SN12C renal = tested on: SN12C renal
# U251 CNS = tested on: U251 CNS
# OVCAR-3 ovarian = tested on: OVCAR-3 ovarian
# COLO 205 colon = tested on: COLO 205 colon
# SF-268 CNS = tested on: SF-268 CNS
# MOLT-4 leukemia = tested on: MOLT-4 leukemia
# MDA-MB-435 = tested on: MDA-MB-435
# UO-31 renal = tested on: UO-31 renal
# BT-549 breast = tested on: BT-549 breast
# SK-OV-3 ovarian = tested on: SK-OV-3 ovarian
# K-562 leukemia = tested on: K-562 leukemia
# UACC-62 melanoma = tested on: UACC-62 melanoma
# A549 NSCLC = tested on: A549 NSCLC
# LOX IMVI melanoma = tested on: LOX IMVI melanoma
# RXF 393 renal = tested on: RXF 393 renal
# RPMI-8226 leukemia = tested on: RPMI-8226 leukemia
# T-47D breast = tested on: T-47D breast
# SF-539 CNS = tested on: SF-539 CNS
# IGROV1 ovarian = tested on: IGROV1 ovarian
# NCI-H226 lung = tested on: NCI-H226 lung
# SW-620 colon = tested on: SW-620 colon
# SK-MEL-28 melanoma = tested on: SK-MEL-28 melanoma
# UACC-257 melanoma = tested on: UACC-257 melanoma
# SK-MEL-5 melanoma = tested on: SK-MEL-5 melanoma
# SF-295 CNS = tested on: SF-295 CNS
# HOP-62 NSCLC = tested on: HOP-62 NSCLC
# M14 melanoma = tested on: M14 melanoma
# MALME-3M melanoma = tested on: MALME-3M melanoma
# HS 578T breast = tested on: HS 578T breast
# NCI-H522 lung = tested on: NCI-H522 lung
# 786-0 renal = tested on: 786-0 renal
# HCC-2998 colon = tested on: HCC-2998 colon
# MCF7 breast = tested on: MCF7 breast
# TK-10 renal = tested on: TK-10 renal
# ACHN renal = tested on: ACHN renal
# HT29 colon = tested on: HT29 colon
# CAKI-1 renal = tested on: CAKI-1 renal
# NCI/ADR-RES ovarian = tested on: NCI/ADR-RES ovarian
# DU-145 prostate = tested on: DU-145 prostate
# PC-3 prostate = tested on: PC-3 prostate
# NCI-H23 lung = tested on: NCI-H23 lung
# HOP-92 NSCLC = tested on: HOP-92 NSCLC
# NCI-H460 lung = tested on: NCI-H460 lung
smiles,measurement,setting,value
COc1ccc(C(=O)/C=C/c2cccc3ccccc23)cc1S(N)(=O)=O,GI50,EKVX NSCLC,3.55 µM
same,TGI,EKVX NSCLC,13.5 µM
same,GI50,OVCAR-8 ovarian,2.39 µM
same,TGI,OVCAR-8 ovarian,10.1 µM
same,GI50,KM12 colon,1.46 µM
same,TGI,KM12 colon,3.57 µM
same,GI50,OVCAR-4 ovarian,2.87 µM
same,TGI,OVCAR-4 ovarian,11.3 µM
same,GI50,A498 renal,13.2 µM
same,TGI,A498 renal,26.2 µM
same,GI50,SK-MEL-2 melanoma,4.99 µM
same,TGI,SK-MEL-2 melanoma,17.8 µM
same,GI50,SR leukemia,0.749 µM
same,TGI,SR leukemia,5.13 µM
same,GI50,SNB-19 CNS,3.45 µM
same,TGI,SNB-19 CNS,13.7 µM
same,GI50,CCRF-CEM leukemia,2.54 µM
same,TGI,CCRF-CEM leukemia,6.95 µM
same,GI50,HL-60(TB) leukemia,1.36 µM
same,TGI,HL-60(TB) leukemia,5.81 µM
same,GI50,MDA-MB-231 breast,2.38 µM
same,TGI,MDA-MB-231 breast,6.49 µM
same,GI50,MDA-MB-468 breast,1.53 µM
same,TGI,MDA-MB-468 breast,3.11 µM
same,GI50,HCT-116 colon,1.33 µM
same,TGI,HCT-116 colon,2.93 µM
same,GI50,HCT-15 colon,1.23 µM
same,TGI,HCT-15 colon,3.2 µM
same,GI50,OVCAR-5 ovarian,1.84 µM
same,TGI,OVCAR-5 ovarian,4.4 µM
same,GI50,SN12C renal,1.6 µM
same,TGI,SN12C renal,3.91 µM
same,GI50,U251 CNS,1.5 µM
same,TGI,U251 CNS,3.02 µM
same,GI50,OVCAR-3 ovarian,1.8 µM
same,TGI,OVCAR-3 ovarian,4.38 µM
same,GI50,COLO 205 colon,1.67 µM
same,TGI,COLO 205 colon,3.24 µM
same,GI50,SF-268 CNS,3.04 µM
same,TGI,SF-268 CNS,11.1 µM
same,GI50,MOLT-4 leukemia,2.3 µM
same,TGI,MOLT-4 leukemia,6.39 µM
same,GI50,MDA-MB-435,2.23 µM
same,TGI,MDA-MB-435,7.5 µM
same,GI50,UO-31 renal,1.48 µM
same,TGI,UO-31 renal,3.19 µM
same,GI50,BT-549 breast,1.77 µM
same,TGI,BT-549 breast,3.63 µM
same,GI50,SK-OV-3 ovarian,3.72 µM
same,TGI,SK-OV-3 ovarian,15.4 µM
same,GI50,K-562 leukemia,1.69 µM
same,TGI,K-562 leukemia,7.54 µM
same,GI50,UACC-62 melanoma,1.53 µM
same,TGI,UACC-62 melanoma,3 µM
same,GI50,A549 NSCLC,2.66 µM
same,TGI,A549 NSCLC,9.65 µM
same,GI50,LOX IMVI melanoma,1.35 µM
same,TGI,LOX IMVI melanoma,2.63 µM
same,GI50,RXF 393 renal,1.57 µM
same,TGI,RXF 393 renal,3.24 µM
same,GI50,RPMI-8226 leukemia,1.59 µM
same,TGI,RPMI-8226 leukemia,5.34 µM
same,GI50,T-47D breast,3.41 µM
same,TGI,T-47D breast,14.1 µM
same,GI50,SF-539 CNS,1.64 µM
same,TGI,SF-539 CNS,3.06 µM
same,GI50,IGROV1 ovarian,2.3 µM
same,TGI,IGROV1 ovarian,7.12 µM
same,GI50,NCI-H226 lung,3.1 µM
same,TGI,NCI-H226 lung,13.2 µM
same,GI50,SW-620 colon,1.62 µM
same,TGI,SW-620 colon,3.46 µM
same,GI50,SK-MEL-28 melanoma,1.85 µM
same,TGI,SK-MEL-28 melanoma,3.64 µM
same,GI50,UACC-257 melanoma,3.05 µM
same,TGI,UACC-257 melanoma,12.3 µM
same,GI50,SK-MEL-5 melanoma,2.53 µM
same,TGI,SK-MEL-5 melanoma,7.71 µM
same,GI50,SF-295 CNS,2.38 µM
same,TGI,SF-295 CNS,7.74 µM
same,GI50,HOP-62 NSCLC,2.03 µM
same,TGI,HOP-62 NSCLC,5.66 µM
same,GI50,M14 melanoma,2.03 µM
same,TGI,M14 melanoma,5.68 µM
same,GI50,MALME-3M melanoma,1.83 µM
same,TGI,MALME-3M melanoma,4.2 µM
same,GI50,HS 578T breast,5.21 µM
same,TGI,HS 578T breast,26.8 µM
same,GI50,NCI-H522 lung,1.61 µM
same,TGI,NCI-H522 lung,3.2 µM
same,GI50,786-0 renal,1.86 µM
same,TGI,786-0 renal,3.87 µM
same,GI50,HCC-2998 colon,1.75 µM
same,TGI,HCC-2998 colon,3.24 µM
same,GI50,MCF7 breast,2.14 µM
same,TGI,MCF7 breast,8.58 µM
same,GI50,TK-10 renal,2.89 µM
same,TGI,TK-10 renal,10.2 µM
same,GI50,ACHN renal,1.89 µM
same,TGI,ACHN renal,3.92 µM
same,GI50,HT29 colon,1.74 µM
same,TGI,HT29 colon,3.92 µM
same,GI50,CAKI-1 renal,2.42 µM
same,TGI,CAKI-1 renal,10.6 µM
same,GI50,NCI/ADR-RES ovarian,2.2 µM
same,TGI,NCI/ADR-RES ovarian,6.4 µM
same,GI50,DU-145 prostate,2.85 µM
same,TGI,DU-145 prostate,10.8 µM
same,GI50,PC-3 prostate,2.31 µM
same,TGI,PC-3 prostate,6.64 µM
same,GI50,NCI-H23 lung,2.21 µM
same,TGI,NCI-H23 lung,5.64 µM
same,GI50,HOP-92 NSCLC,2.14 µM
same,TGI,HOP-92 NSCLC,9.53 µM
same,GI50,NCI-H460 lung,1.79 µM
same,TGI,NCI-H460 lung,4.16 µM
